Measurements reported in US6569638B1, “Method for screening compounds for the treatment of neoplasia” (Cell Pathways, Inc, priority 2000, dated 2003).
Read-outs that look alike come from different tables or passages of the source.

Assays:
[1] = molecular target: T1, GST-cGB-PDE5 fusion protein (cGMP binding sites of human PDE5A) (Homo sapiens, UniProt O76074); assay: cGMP binding assay (3H-cGMP competition)
T1 construct: made in house; host or cells: E. coli BL21 (DE3)

[2] = system: JNK1 in SW480 colon cancer cells; assay: JNK1 immunoprecipitation in vitro kinase assay with GST-c-Jun(1-79); type: cell-based, human; conditions: for JNK1 activation by cGMP modulators: SW480 cells, one hour, dbcGMP 500 μM, dbcAMP 500 μM, YC-1 50 μM, MY-5445 50 μM, dipyridamole 10 μM; for inhibition of Compound B-induced JNK1 activation: SW480 cells pre-treated 2 μM for 2 hours, then Compound B 1 or 10 μM for one hour
Experimental: The cells were lysed, JNK1 immunoprecipitated with an anti-JNK1 antibody, and the immunoprecipitate (“IP”) assayed for in vitro kinase activity with GST-c-Jun(1-79) as the substrate. The experiments were repeated three times with similar results. Fold activation was measured using a Phosphor Imager.
FIG. 1B: SW480 cells were treated with Compound A (1 μM) for the indicated time periods and in vitro JNK1 kinase activity was determined as described above.
FIG. 2A SW480 cells were treated with either DMSO (−) or Compound A, 0.1 μM; dbcGMP, 500 μM; YC-1, 50 μM; MY-5445, 50 μM; dipyridamole, 10 μM or dbcAMP, 500 μM for one hour. The cells were lysed, JNK1 immunoprecipitated, and the IP assayed for in vitro kinase activity as described in FIG. 1A.
FIG. 2B SW480 cells were pre-treated with either DMSO, KT5720 (2 μM) or Rp-8-pCPT-cGMPS (2 μM) for 2 hours and then treated with Compound B (0, 1 or 10 μM) for one hour. The cells were lysed and assayed for JNK1 activation in the IP as described above.
These concentrations were chosen since they provided optimal induction of apoptosis. Endogenous JNK1 was immunoprecipitated with anti-JNK1 antibody and in vitro kinase assays were performed with GST-c-Jun(1-79) as the substrate. […]
However, the precise role of PKG in signal transduction pathways is not known. […] As a control, KT5720 was used as a protein kinase A (“PKA”)-specific inhibitor. SW480 cells were treated with either DMSO, KT5720 (2 μM) or Rp-8-pCPT-cGMPS (2 μM) for 2 hours and then treated with either DMSO or Compound B (1 or 10 μM) for one hour. Cell extracts were collected and assayed for JNK1 activation.

[3] = system: PARP in SW480 cells; assay: PARP cleavage by Western blot; type: cell-based, human; conditions: SW480 cells pre-incubated 2 μM for 2 hours, then Compound A 1 μM 2 days
Experimental: SW480 cells were pre-treated with either DMSO (−) or Rp-8-pCPT-cGMPS (2 μM) for 2 hours and then treated with either DMSO (−) or Compound A (1 μM). Both the floating and attached cells were collected after 2 days, and the cell lysates were assayed for PARP cleavage by Western blotting with anti-PARP antibody. Fold increase in PARP cleavage was measured by densitometry of the 85 kD fragment.
Finally, we investigated whether activation of the PKG pathway is required for the induction of apoptosis by SAANDs. SW480 cells were treated with either DMSO or the PKG inhibitor Rp-8-pCPT-cGMPS (2 μM) for 2 hours and then the cells were treated with either DMSO or Compound A (1 μM) for 2 days. Both the floating and attached cells were collected, and the cell lysates were assayed for poly (ADP-ribose) polymerase (PARP) cleavage by Western blotting with an anti-PARP antibody. PARP is a 116 kD nuclear enzyme that converts NAD to nicotinamide and protein-linked ADP-ribose polymers, which are important for DNA repair and genomic maintenance. In cells that are undergoing apoptosis the 116 kD PARP protein is cleaved by caspase-3 into 85 and 25 kD fragments, thus resulting in loss of normal PARP function. This inactivation of PARP apparently prevents depletion of cellular levels of NAD and ATP, which are thought to be required for later events in apoptosis.

[4] = molecular target: native bovine PDE5 (Bos taurus, UniProt Q28156); conditions: read-out: Kd of cGMP binding; cited from earlier work
[5] = system: PKG in SW480 colon cancer cells; assay: PKG assay of drug-treated cell lysates (GST-cGB-PDE5 solid phase substrate); type: cell-based, human; conditions: 48 hrs, exisulind 200, 400, 600 μM, E4021 0.1, 1, 10 μM, with and without added cGMP
Experimental: To test the effect of cGMP-specific PDE inhibition on neoplasia containing the APC mutation, SW480 colon cancer cells were employed. SW 480 is known to contain the APC mutation. About 5 million SW480 cells in RPMI 5% serum are added to each of 8 dishes:
2-10 cm dishes—30 μL DMSO vehicle control (without drug),
3-10 cm dishes—200 μM, 400 μM, 600 μM exisulind in DMSO, and
The dishes are incubated for 48 hrs at 37° C. in 5% CO2 incubator.
The liquid media are aspirated from the dishes (the cells will attach themselves to the dishes). The attached cells are washed in each dish with cold PBS, and 200 μL cell lysis buffer (i.e., 50 mM Tris-HCl, 1% NP-40, 150 mM NaCl, 1 mM EDTA, 1 mM Na3VO4, 1 mM NaF, 500 μM IBMX with proteinase inhibitors) is added to each dish. Immediately after the cell lysis buffer is added, the lysed cells are collected by scraping the cells off each dish. The cell lysate from each dish is transferred to a microfuge tube, and the microfuge tubes are incubated at 4° C. for 15 minutes while gently agitating the microfuge tubes to allow the cells to lyse completely. […]
For each control or drug cell lysate sample to be evaluated, the reaction is started by adding phosphorylation buffer containing 10 μCi ^32P-γ-ATP solution (200 μM ATP, 4.5 mM MgCl; 5 mM KH2PO4; 5 mM K2HPO4;) to each mixture. […]

[6] = at high concentration (100 μM) against cGMP 2 μM

T1 sequence (O76074 46-539 limits assumed): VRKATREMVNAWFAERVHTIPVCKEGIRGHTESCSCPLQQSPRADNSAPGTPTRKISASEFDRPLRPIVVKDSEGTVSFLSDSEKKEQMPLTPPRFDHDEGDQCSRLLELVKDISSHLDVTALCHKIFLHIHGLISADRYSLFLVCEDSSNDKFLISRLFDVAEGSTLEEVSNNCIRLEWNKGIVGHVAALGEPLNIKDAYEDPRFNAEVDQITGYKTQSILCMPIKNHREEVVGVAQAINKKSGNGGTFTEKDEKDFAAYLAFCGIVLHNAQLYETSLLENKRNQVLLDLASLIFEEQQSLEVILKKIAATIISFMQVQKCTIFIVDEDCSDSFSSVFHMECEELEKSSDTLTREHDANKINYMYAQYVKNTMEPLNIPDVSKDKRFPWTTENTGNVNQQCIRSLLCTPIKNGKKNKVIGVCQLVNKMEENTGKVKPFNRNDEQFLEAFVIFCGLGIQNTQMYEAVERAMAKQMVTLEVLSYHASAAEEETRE

CCCCOC1C2OP(=O)(O)OCC2OC1n1cnc2c(N)ncnc21 (stereo not drawn) [2′-O-butyl-cAMP]
competition with cGMP for the cGMP binding sites of GST-cGB-PDE5 ([1]; 3H-cGMP 2 μM, 22° C., 1 hour): did not compete with cGMP in binding

Nc1ccn([C@@H]2O[C@@H]3COP(=O)(O)O[C@H]3[C@H]2O)c(=O)n1 [cCMP, cyclic CMP]
competition with cGMP for the cGMP binding sites of GST-cGB-PDE5 ([1]; 3H-cGMP 2 μM, 22° C., 1 hour): did not compete with cGMP in binding

Clc1cccc(Nc2nnc(-c3ccccc3)c3ccccc23)c1 [MY-5445, 1-(3-chloroanilino)-4-phenyphthalazine]
JNK1 activation by cGMP modulators [2]: also activated JNK1

Nc1nc2c(nc(Sc3ccc(Cl)cc3)n2[C@@H]2O[C@@H]3CO[P@@](=O)(S)O[C@H]3[C@H]2O)c(=O)[nH]1 [Rp-8-pCPT-cGMP, reference compound]
inhibition of Compound A-induced PARP cleavage [3]: significantly inhibited | inhibition of Compound B-induced JNK1 activation [2]: strongly inhibited

Nc1ncnc2c1ncn2[C@@H]1O[C@@H]2COP(=O)(O)O[C@H]2[C@H]1O [Cyclic AMP]
competition with cGMP for the cGMP binding sites of GST-cGB-PDE5 [1]: did not compete with cGMP in binding

CCCC(=O)Nc1ncnc2c1ncn2[C@@H]1O[C@@H]2COP(=O)(O)O[C@H]2[C@H]1OC(=O)CCC [dbcAMP, dibutyryladenosine 3′:5′-cyclic monophosphate]
JNK1 activation by cGMP modulators [2]: inactive

OCc1ccc(-c2nn(Cc3ccccc3)c3ccccc23)o1 [YC-1]
JNK1 activation by cGMP modulators [2]: also activated JNK1

CCCCCCOC(=O)[C@]1(O)C[C@@H]2O[C@@]1(C)n1c3ccccc3c3c4c(c5c6ccccc6n2c5c31)C(=O)NC4 [KT5720]
inhibition of Compound B-induced JNK1 activation [2]: no inhibitory activity

Nc1nc2c(ncn2[C@@H]2O[C@@H]3COP(=O)(O)O[C@H]3[C@H]2O)c(=O)[nH]1 [cGMP, cyclic 3′,5′-guanosine monophosphate]
Kd [4]: 1300 nM | Kd [1]: 1600 ± 200 nM | competition with cGMP for the cGMP binding sites of GST-cGB-PDE5 ([1]; 3H-cGMP 2 μM, 22° C., 1 hour): specifically binds GST-cGB-PDE5 protein

O=c1ccn([C@@H]2O[C@@H]3COP(=O)(O)O[C@H]3[C@H]2O)c(=O)[nH]1 [cUMP, cyclic UMP]
competition with cGMP for the cGMP binding sites of GST-cGB-PDE5 ([1]; 3H-cGMP 2 μM, 22° C., 1 hour): did not compete with cGMP in binding

CCCCOC1C2OP(=O)(O)OCC2OC1n1cnc2c(=O)[nH]c(N)nc21 (stereo not drawn) [2′-O-butyl-cGMP]
competition with cGMP for the cGMP binding sites of GST-cGB-PDE5 ([1]; 3H-cGMP 2 μM, 22° C., 1 hour): did not compete with cGMP in binding

CCCOc1ccccc1-c1nc2nn[nH]c2c(=O)[nH]1 [zaprinast]
competition with cGMP for the cGMP binding sites of GST-cGB-PDE5 ([1]; 3H-cGMP 2 μM, 22° C., 1 hour): None of the PDE5 inhibitors showed any competition with cGMP

Nc1nc2c(nc(Br)n2[C@@H]2O[C@@H]3COP(=O)(O)O[C@H]3[C@H]2O)c(=O)[nH]1 [Compound 8-bromo-cGMP, 8-bromo-cGMP]
competition with cGMP for the cGMP binding sites of GST-cGB-PDE5 [1, 6]: can partially compete with cGMP

O=C([O-])C1CCN(c2nc(NCc3ccc4c(c3)OCO4)c3cc(Cl)ccc3n2)CC1.[Na+] [Compound E4021]
PKG activity relative to control [5]: do not exhibit PKG activation relative to control | competition with cGMP for the cGMP binding sites of GST-cGB-PDE5 ([1]; 3H-cGMP 2 μM, 22° C., 1 hour): None of the PDE5 inhibitors showed any competition with cGMP

OCCN(CCO)c1nc(N2CCCCC2)c2nc(N(CCO)CCO)nc(N3CCCCC3)c2n1 [dipyridamole]
JNK1 activation by cGMP modulators [2]: also activated JNK1

CCCC(=O)Nc1nc2c(ncn2C2OC3COP(=O)([O-])OC3C2OC(=O)CCC)c(=O)[nH]1.[Na+] (stereo not drawn) [dbcGMP, Dibutyrylguanosine 3′:5′-cyclic monophosphate]
JNK1 activation by cGMP modulators [2]: activated JNK1

O=c1[nH]cnc2c1ncn2[C@@H]1O[C@@H]2COP(=O)(O)O[C@H]2[C@H]1O [Cyclic IMP, cyclic IMP]
competition with cGMP for the cGMP binding sites of GST-cGB-PDE5 [1, 6]: can partially compete with cGMP
